These results are taken from ChEMBL document CHEMBL1201862, “PubChem BioAssay data set” (2004).

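Assay format: 96-well plates, 48-hour exposure. Here, GI50 denotes the concentration required for 50% inhibition of growth.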 Active and inactive are the calls of the source. Cut-off read from the data, not from the text of the source: active = GI50 up to about 1.1 µM and inactive = higher.

Common to all, as to test: NCI tumour cell line growth inhibition, 48 h
In test [1] the test system is SNB-78.
Test [2] has as its system DMS-273.
Test [3] deals with DMS-114.
In test [4] the test system is KM-20L2.
Test [5] relates to EKVX.
Test [6] deals with RXF 393.
For test [7], the system named is MOLT-4.
Test [8] relates to KM12.
Test [9] concerns IGROV-1.
Test [10] relates to M19-MEL.
Test [11] concerns SN12C.
For test [12], the system named is NCI-H522.
In test [13] the test system is ACHN.
Test [14] relates to TK-10.
Test [15] deals with SR.
For test [16], the system named is MDA-MB-231.
Test [17] deals with BT-549.
Test [18] concerns MDA-N.
The subject of test [19] is PC-3.
For test [20], the system named is T47D.

Turning to `Cc1ccc2cc3cccc(C(=O)NCCN(C)C)c3nc2c1`, the GI50 in test [1] was 1.37 µM (inactive); in test [2], 0.647 µM (active); in test [3], 0.929 µM (active); in test [4], 0.733 µM (active); in test [5], 1.14 µM (inactive); in test [6] it was 1.01 µM (active). For the same compound, the GI50 was 0.321 µM (active) in test [7]; 1.54 µM (inactive) in [8]; 1.42 µM (inactive) in test [9]; 0.977 µM (active) in test [10]; 0.893 µM (active) in [11].

`C=CCC(O[Si](C)(C)C(C)(C)C)c1cc(O[Si](C)(C)C(C)(C)C)ccc1OC` (stereo not given): the GI50 in [1] is > 49.2 µM (inactive); in [2], > 95.1 µM (inactive); in [3], > 59.7 µM (inactive); in test [4], > 100 µM (inactive); in test [5], > 100 µM (inactive); in [6], 58.9 µM (inactive). Further, the GI50 in test [7] is > 70.8 µM (inactive); in [8] it was > 100 µM (inactive); in test [9] it was > 100 µM (inactive); in [11], > 87.3 µM (inactive).

For the compound `CN(C)CCNC(=O)c1cc(Cl)cc2ccc(-c3ccccc3)nc12`, the GI50 is 8.13 µM (inactive) in test [1]; 2.3 µM (inactive) in test [2]; 3.46 µM (inactive) in [3]; 2.65 µM (inactive) in test [4]; 5.12 µM (inactive) in [5]; 3.86 µM (inactive) in [6]. The GI50 in test [7] is 0.447 µM (active); in test [12], 5.37 µM (inactive); in test [8] it was 4.84 µM (inactive); in [9], 3.18 µM (inactive); in test [10], 3.15 µM (inactive); in [11] it was 3.02 µM (inactive).

`COc1cccc(C2C(C(=O)O)=C(CO)Oc3cc4c(cc32)OCO4)c1OC` (stereo not given): the GI50 in test [13], in test [1], in [4], in test [5], in [7] and in test [12] was > 100 µM (inactive) in each case. The GI50 in test [14], in test [9], in test [10] and in test [11] was > 100 µM (inactive) in each case.

With `C=CCc1cccc(/C=N\N/C(N)=N/O)c1O`, the GI50 is 21.5 µM (inactive) in test [1]; 3.05 µM (inactive) in test [2]; 2.28 µM (inactive) in test [3]; 3.98 µM (inactive) in test [4]; 3.06 µM (inactive) in test [5]; 2.99 µM (inactive) in test [6]. In addition, the GI50 in test [7] is 3.1 µM (inactive); in test [12], 3.23 µM (inactive); in [8] it was 4.36 µM (inactive); in [9], 4.59 µM (inactive); in test [11] it was 4.8 µM (inactive).

Take `O=C1OC(c2ccccc2)=N/C1=C\c1ccc(Oc2ccc(Cl)c(Cl)c2)cc1`: the GI50 in [13] was 63.1 µM (inactive); in test [1], 25.9 µM (inactive); in test [3], 15.4 µM (inactive); in test [4], 56.6 µM (inactive); in test [5], 45.1 µM (inactive); in test [6], 25.8 µM (inactive). Moreover, the GI50 in test [15] was 21.7 µM (inactive); in test [7] it was 20.7 µM (inactive); in test [12], 30.1 µM (inactive); in test [8], 50 µM (inactive); in test [14], > 100 µM (inactive); in test [9] it was > 100 µM (inactive). Moreover, the GI50 in test [10] is 36.9 µM (inactive); in test [11], 51.1 µM (inactive).

In the case of `COC(=O)C1=C(C)N2CCOC2(C)C(C(=O)OC)C1c1ccc[nH]1` (stereo not given), the GI50 in test [13], in test [3], in [4], in [5], in [6] and in [15] was > 100 µM (inactive) throughout. Moreover, the GI50 in test [7], in [8], in test [14], in test [9] and in test [10] was > 100 µM (inactive) throughout.

For `CC(=O)OC1CC2(O)C(CCC3(C)C(c4ccc(=O)oc4)CCC32O)C2(C)C1=CC(O)C1OC12` (stereo not given), the GI50 in test [1] is 0.0442 µM (active); in [2], 0.04 µM (active); in test [3], 0.025 µM (active); in test [4] it was 0.067 µM (active); in test [5], 0.042 µM (active); in test [6] it was 0.0331 µM (active). The GI50 in test [7] was 0.0281 µM (active); in test [12], 0.025 µM (active); in test [8] it was 0.067 µM (active); in [9], 0.0653 µM (active); in test [10], 0.0502 µM (active); in test [11], 0.0349 µM (active).

Turning to `O=P1(c2ccccc2)Nc2ccccc2SSc2ccccc2N1`, the GI50 in test [1] was 24.2 µM (inactive); in test [2], 17.4 µM (inactive); in test [3], 19.5 µM (inactive); in [4], 17.9 µM (inactive); in test [5], 15.2 µM (inactive); in [6] it was 19.4 µM (inactive). Besides, the GI50 in [7] was 18.7 µM (inactive); in test [12], 15.1 µM (inactive); in [8], 16.7 µM (inactive); in [9], 19.7 µM (inactive); in test [10], 18.7 µM (inactive); in test [11], 17.8 µM (inactive).

As to `CC(C)NC(=O)CN1CCN(C2=C(Cl)C(=O)c3c(O)ccc(O)c3C2=O)CC1`, the GI50 in test [13] is 2.15 µM (inactive); in test [16], 1.97 µM (inactive); in test [5] it was 3.72 µM (inactive); in test [17] it was 1.49 µM (inactive); in test [6], 1.54 µM (inactive); in test [15] it was 0.148 µM (active). Further, the GI50 in [18] was 1.49 µM (inactive); in test [7] it was 0.36 µM (active); in test [12] it was 1.9 µM (inactive); in test [8], 6.5 µM (inactive); in [14], 2.07 µM (inactive); in test [9], 2.39 µM (inactive). For the same compound, the figures for the GI50 in [19], in test [11] and in [20] were 1.89 µM (inactive), 1.68 µM (inactive) and 1.91 µM (inactive), respectively.

Regarding `COc1cc(CCCOC2OC(COC3OCC(O)C(O)C3O)C(O)C(O)C2O)cc2cc(-c3ccc4c(c3)OCO4)oc12` (stereo not given), the GI50 was > 175 µM (inactive) in test [1]; > 175 µM (inactive) in [2]; > 175 µM (inactive) in test [3]; > 175 µM (inactive) in [4]; > 175 µM (inactive) in test [5]; > 94 µM (inactive) in test [6]. For the same compound, the GI50 in test [7] is > 175 µM (inactive); in [12] it was > 175 µM (inactive); in test [8] it was > 175 µM (inactive); in test [9], > 175 µM (inactive); in [10], > 175 µM (inactive); in test [11] it was 81.3 µM (inactive).

With `C=C1C(=O)O[C@H]2[C@H]1[C@@H](OC(=O)C=C(C)C)CC1=C[C@@H](C[C@@]3(C)O[C@@H]23)OC1=O`, the GI50 in test [2] is 1.61 µM (inactive); in test [5], 4.23 µM (inactive); in test [6], 1.83 µM (inactive); in [7], 2.15 µM (inactive); in test [12], 1.16 µM (inactive); in test [8], 5.74 µM (inactive). Moreover, the results for the GI50 in [9], in [10] and in test [11] were 10.8 µM (inactive), 3.08 µM (inactive) and 4.54 µM (inactive), respectively.

Turning to `O=C(O)/C(Cc1ccnc2ccccc12)=N\O`, the GI50 in [13], in test [16], in test [5], in test [17], in test [6] and in test [15] was > 100 µM (inactive) in each case. The GI50 in [18], in test [7], in [12], in [8], in test [14] and in [9] was > 100 µM (inactive) each time. The GI50 in [19], in test [11] and in test [20] was > 100 µM (inactive) throughout.

Regarding `CC1CCC2N(C1)CC1C3(O)CC45OC6(O)C(O)CCC4(C)C6CCC5C3(O)CC(O)C1(O)C2(C)O` (stereo not given), the GI50 in test [13], in [16], in test [5], in [17], in test [6] and in test [15] was > 100 µM (inactive) each time. Further, the GI50 in test [18], in test [7], in test [12], in test [8], in test [14] and in test [9] was > 100 µM (inactive) in each case. Moreover, the GI50 in [19], in test [11] and in test [20] was > 100 µM (inactive) each time.

`Cc1ccc(S(=O)(=O)N(CC(=O)O)c2ccccc2)cc1`: the GI50 in test [13], in [2], in test [4], in test [5], in test [6] and in [7] was > 100 µM (inactive) in each case. Further, the GI50 in test [12], in test [8], in test [14], in test [9], in [10] and in test [11] was > 100 µM (inactive) each time.

As to `Cc1cc(C)cc(Sc2c([N+](=O)[O-])ncn2C)c1`, the GI50 in [13] was 26.2 µM (inactive); in test [1], 13.6 µM (inactive); in [2], 8.09 µM (inactive); in test [3] it was 12.2 µM (inactive); in test [4] it was 35.2 µM (inactive); in test [5], 27.7 µM (inactive). Also, the GI50 in [15] is 10.5 µM (inactive); in [7], 5.79 µM (inactive); in test [12], 6.64 µM (inactive); in [8] it was 18.9 µM (inactive); in test [14] it was 23 µM (inactive); in test [9], 20.8 µM (inactive). Moreover, the GI50 is 22.6 µM (inactive) in test [10] and 16.4 µM (inactive) in [11].
